According to patent US10028961B2, “Therapeutically active compounds and their methods of use” (AGIOS PHARMACEUTICALS, INC., priority 2013, dated 2018):

Assays:
HT1080 cells = test: Cellular assay for IDH1m R132C inhibitors, 2-HG by LC-MS in HT1080 cells; assay type: cell-based; details: Homo sapiens, HT-1080
How it was run: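 HT1080 cells at 5000 cells/well were treated with compound (0.2% DMSO final). After 48 h, 2-HG in the medium was measured by LC-MS. Viability was read by CellTiter-Glo luminescence at 72 h.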

[1] = molecular target: IDH1-R132H homodimer enzyme (Homo sapiens (Human), UniProt O75874, R132H); test: In vitro assay IDH1-R132H homodimer, NADPH depletion assay with NADPH/NADP preincubation; assay type: biochemical; details: 5 μM NADPH and 37.5 μM NADP
How it was run: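 Conversion of alpha-ketoglutarate to 2-hydroxyglutarate tracked by NADPH depletion. Reaction started with 5 mM alpha-ketoglutarate plus NADPH substrate mix (50 μl total), 60 min at room temperature. Leftover NADPH quantified via diaphorase/resazurin fluorescence.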

[2] = test system: U87MG pLVX-IDH2 R140Q-neo cells; test: U87MG pLVX-IDH2 R140Q-neo cell based assay, 2-HG by LC-MS; details: Homo sapiens, U-87 MG
[3] = molecular target: IDH1 wt/IDH1 R132H heterodimer (Homo sapiens (Human), UniProt O75874, R132H); test: In vitro assay for IDH1m R132H inhibitors, IDH1 wt/IDH1 R132H heterodimer, NADPH depletion (diaphorase/resazurin); assay type: biochemical; details: IDH1 wt/R132H heterodimer, NADPH/NADP, not saturated; read-out: IDH1 wt/R132H NADPH/NADP IC50 not saturated
How it was run: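 Purified IDH1wt-his/IDH1R132H-flag heterodimer (sf9 co-expression) pre-incubated 1 hr at room temperature with compound and NADPH before α-KG addition. Remaining NADPH read by diaphorase/resazurin conversion to fluorescent resorufin, 5 min at 25° C. Compounds diluted 1:50 from DMSO; IC50 determined.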

IDH2 R140Q = IDH2 R140Q (Homo sapiens (Human), UniProt P48735, R140Q); test: In vitro assay for IDH2m R140Q inhibitors, cofactor depletion assay; assay type: biochemical; details: IDH2 R140Q enzyme
How it was run: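 Remaining cofactor measured fluorimetrically: diaphorase/resazurin Stop Mix […], halting the reaction. Before that, mutant enzyme and compound sat 1 h at RT, then substrate mix (4 μM NADPH, 1.6 mM α-KG) was added for 16 h at RT.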

[4] = test system: Neurosphere cells (TS603); test: Cellular assay for IDH1m R132H inhibitors, 2-HG by LC-MS in neurosphere cells (TS603); assay type: cell-based; details: 2-HG in media at 48 hours
How it was run: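 TS603 neurosphere cells in NeuroCult medium were dosed with compound (0.25% DMSO final) at 37 C, 5% CO2. After 48 hours, medium 2-HG was measured by LC-MS. At 72 hours, viability was read by CellTiter-Glo luminescence.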

Sequence of IDH1-R132H homodimer enzyme (O75874 whole entry R132H): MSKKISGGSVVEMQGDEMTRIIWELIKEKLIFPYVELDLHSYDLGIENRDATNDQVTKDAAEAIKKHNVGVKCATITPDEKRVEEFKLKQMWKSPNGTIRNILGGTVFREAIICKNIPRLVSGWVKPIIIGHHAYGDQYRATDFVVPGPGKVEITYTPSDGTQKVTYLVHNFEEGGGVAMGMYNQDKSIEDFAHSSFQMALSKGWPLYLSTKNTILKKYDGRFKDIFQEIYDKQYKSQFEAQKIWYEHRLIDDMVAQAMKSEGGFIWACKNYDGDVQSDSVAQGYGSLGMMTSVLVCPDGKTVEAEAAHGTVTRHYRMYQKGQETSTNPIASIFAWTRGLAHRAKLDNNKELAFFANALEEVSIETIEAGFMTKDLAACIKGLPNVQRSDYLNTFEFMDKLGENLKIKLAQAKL
Sequence of IDH1 wt/IDH1 R132H heterodimer (O75874 whole entry R132H): as above
Sequence of IDH1 wt/IDH1 R132H heterodimer (O75874 whole entry, stated change not applied): as the sequence (O75874 whole entry R132H) above, with H132R counted along it
Sequence of IDH2 R140Q (P48735 40-452 R140Q): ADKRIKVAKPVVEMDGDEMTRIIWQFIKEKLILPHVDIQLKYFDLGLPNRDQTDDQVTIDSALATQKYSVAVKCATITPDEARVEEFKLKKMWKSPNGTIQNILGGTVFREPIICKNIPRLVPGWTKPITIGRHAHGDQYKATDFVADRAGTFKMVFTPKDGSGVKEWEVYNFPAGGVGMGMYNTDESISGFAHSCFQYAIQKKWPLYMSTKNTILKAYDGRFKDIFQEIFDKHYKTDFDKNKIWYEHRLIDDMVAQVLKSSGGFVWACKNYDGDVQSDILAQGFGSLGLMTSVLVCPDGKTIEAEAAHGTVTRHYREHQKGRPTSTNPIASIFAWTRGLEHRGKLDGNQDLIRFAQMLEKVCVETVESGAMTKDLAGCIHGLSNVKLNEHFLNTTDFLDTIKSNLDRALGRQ

IC50 (HT1080 cells) [nM]	IC50 [1] [nM]	IC50 [2] [nM]	IC50 [3] [nM]	IC50 (IDH2 R140Q) [nM]	IC50 [4] [nM]	SMILES
50 to 100	< 50	< 50	< 50	< 50	< 50	CC(Nc1nc(Nc2cc(F)cc(C#N)c2)nc(-n2ccc(C(F)(F)F)n2)n1)C(F)(F)F (stereo not drawn) [Compound 119]
100 to 1000	< 50	< 50	< 50	< 50	< 50	N#Cc1cc(F)cc(Nc2nc(NC3CC(F)(F)C3)nc(-c3cccc(C(F)(F)F)n3)n2)c1 [Compound 154]
100 to 1000	100 to 1000	< 50	< 50	< 50	< 50	CC(F)(F)c1nc(-c2nc(NC3CC(F)(F)C3)nc(NC3CC(F)(F)C3)n2)cs1 [Compound 209]
> 1000	50 to 100	< 50	< 50	< 50	< 50	FC(F)(F)c1cc(Nc2nc(NCC3CC3)nc(-c3cccc(Cl)n3)n2)ccn1 [Compound 200]
100 to 1000	100 to 1000	< 50	< 50	< 50	< 50	CC(F)(F)c1cccc(-c2nc(Nc3ccnc(C4(C#N)CC4)c3)nc(NC3CCC(F)(F)CC3)n2)n1 [Compound 211]
100 to 1000	50 to 100	< 50	< 50	< 50	< 50	CC(Nc1nc(Nc2ccnc(-c3ccccc3)c2)nc(-c2cccc(C(F)(F)F)n2)n1)C(F)(F)F (stereo not drawn) [Compound 217]
< 50	< 50	< 50	< 50	< 50	< 50	CCC(Nc1nc(NC(CC)C(F)(F)F)nc(-c2cccc(Cl)n2)n1)C(F)(F)F (stereo not drawn) [Compound 103]
< 50	< 50	< 50	< 50	< 50	< 50	CC(Nc1nc(NC(C)C(F)(F)F)nc(-n2ccc(C(F)(F)F)n2)n1)C(F)(F)F (stereo not drawn) [Compound 141]
100 to 1000	50 to 100	< 50	< 50	< 50	< 50	CC(Nc1nc(Nc2ccnc(C(F)(F)F)c2)nc(-c2cccc(C(F)(F)F)n2)n1)C(F)(F)F (stereo not drawn) [Compound 171]
< 50	< 50	< 50	< 50	< 50	< 50	CC(Nc1nc(NC(C)C(F)(F)F)nc(-c2cncc(Cl)n2)n1)C(F)(F)F (stereo not drawn) [Compound 156]
100 to 1000	< 50	< 50	< 50	< 50	< 50	Fc1cc(F)cc(Nc2nc(NC3CCC(F)(F)C3)nc(-c3nc(C(F)(F)F)cs3)n2)c1 (stereo not drawn) [Compound 159]
100 to 1000	50 to 100	< 50	< 50	< 50	< 50	C[C@@H](Nc1nc(Nc2ccnc(C#N)c2)nc(-n2ccc(C(F)(F)F)n2)n1)C(F)(F)F [Compound 207]
100 to 1000	< 50	< 50	< 50	< 50	< 50	N#Cc1cc(F)cc(Nc2nc(NC3CCC(F)(F)C3)nc(-n3ccc(C(F)(F)F)n3)n2)c1 (stereo not drawn) [Compound 112]
> 1000	100 to 1000	< 50	< 50	< 50	< 50	FC1(F)CC(CNc2nc(Nc3ccnc(C(F)(F)F)c3)nc(-c3cccc(C(F)(F)F)n3)n2)C1 [Compound 221]
< 50	< 50	< 50	< 50	< 50	< 50	N#CC1(c2cc(Nc3nc(NC4CC(F)(F)C4)nc(-n4ccc(C(F)(F)F)n4)n3)ccn2)CC1 [Compound 169]
100 to 1000	50 to 100	< 50	< 50	< 50	< 50	Nc1ccc(F)c(-c2nc(Nc3cc(F)cc(F)c3)nc(NC3CCC(F)(F)CC3)n2)n1 [Compound 165]

IC50 (HT1080 cells) [nM]	IC50 [1] [nM]	IC50 [2] [nM]	IC50 [3] [nM]	IC50 (IDH2 R140Q) [nM]	IC50 [4] [nM]	SMILES
< 50	< 50	< 50	< 50	< 50	< 50	FC1(F)CC[C@@H](Nc2nc(N[C@H]3CCC(F)(F)C3)nc(-c3cccc(C(F)(F)F)n3)n2)C1 [Compound 102]
> 1000	100 to 1000	< 50	< 50	< 50	< 50	FC(F)(F)CNc1nc(Nc2ccnc(C(F)(F)F)c2)nc(-c2cccc(C(F)(F)F)n2)n1 [Compound 232]
100 to 1000	50 to 100	< 50	< 50	< 50	< 50	N#Cc1cc(F)cc(Nc2nc(NCC3CC3)nc(-c3cccc(C(F)(F)F)n3)n2)c1 [Compound 175]
50 to 100	100 to 1000	< 50	< 50	< 50	< 50	FC1(F)CCC(Nc2nc(NC3CCC(F)(F)CC3)nc(-c3nc(C(F)(F)F)cs3)n2)CC1 [Compound 183]
100 to 1000	50 to 100	< 50	< 50	< 50	< 50	CC(F)(F)c1cc(Nc2nc(NC3CCC(F)(F)C3)nc(-c3cccc(C(F)(F)F)n3)n2)ccn1 (stereo not drawn) [Compound 163]
100 to 1000	< 50	< 50	< 50	< 50	< 50	CC(Nc1nc(Nc2cc(F)cc(F)c2)nc(-n2ccc(C(F)(F)F)n2)n1)C(F)(F)F (stereo not drawn) [Compound 107]
50 to 100	100 to 1000	50 to 100	< 50	50 to 100	< 50	FC1(F)CCC(Nc2nc(NC3CCC(F)(F)C3)nc(-c3ccnc(C(F)(F)F)n3)n2)C1 (stereo not drawn) [Compound 194]
100 to 1000	50 to 100	< 50	< 50	< 50	< 50	N#Cc1cc(Nc2nc(NC3CC(F)(F)C3)nc(-n3ccc(C(F)(F)F)n3)n2)ccn1 [Compound 210]
< 50	< 50	< 50	< 50	< 50	< 50	FC1(F)CC[C@H](Nc2nc(N[C@H]3CCC(F)(F)C3)nc(-c3cccc(C(F)(F)F)n3)n2)C1 [Compound 118]
100 to 1000	100 to 1000	< 50	< 50	< 50	< 50	FC1(F)CC(CNc2nc(NCC3CC(F)(F)C3)nc(-c3cccc(C(F)(F)F)n3)n2)C1 [Compound 216]
50 to 100	< 50	< 50	< 50	< 50	< 50	N#Cc1cc(F)cc(Nc2nc(NC3CC(F)(F)C3)nc(-c3nc(C(F)(F)F)cs3)n2)c1 [Compound 122]
50 to 100	< 50	< 50	< 50	< 50	< 50	Fc1cc(F)cc(Nc2nc(NC3CCC(F)(F)C3)nc(-n3ccc(C(F)(F)F)n3)n2)c1 (stereo not drawn) [Compound 108]
100 to 1000	100 to 1000	< 50	< 50	< 50	< 50	FC(F)c1cncc(-c2nc(NC3CCC(F)(F)CC3)nc(NC3CCC(F)(F)CC3)n2)n1 [Compound 186]
100 to 1000	100 to 1000	< 50	< 50	< 50	< 50	FC1(F)CC(Nc2nc(Nc3ccnc(C(F)(F)F)c3)nc(-n3ccc(C(F)(F)F)n3)n2)C1 [Compound 197]
100 to 1000	< 50	< 50	< 50	< 50	< 50	N#Cc1cc(F)cc(Nc2nc(NC3CC(F)(F)C3)nc(-n3ccc(C(F)(F)F)n3)n2)c1 [Compound 140]
50 to 100	< 50	100 to 1000	< 50	50 to 100	< 50	CC[C@H](Nc1nc(N[C@H](CC)C(F)(F)F)nc(-c2cccc(Cl)n2)n1)C(F)(F)F [Compound 196]
